Assay results published in article PMC8447900 (Chemical Science, 2021).

System: hENT1
Type: cell-based, human
Conditions: PK15-ENT1 cells

| Structure (SMILES) | effect of AZD8055 on activity of isomer 1a (AZD8055 (5 μM) combined with isomer 1a) | effect of rapamycin on potency of isomer 1a (rapamycin (5 μM) combined with isomer 1a) |
| --- | --- | --- |
| COc1ccc(-c2ccc3c(N4CCOC[C@@H]4C)nc(N4CCOC[C@@H]4C)nc3n2)cc1CO [AZD8055] | negligible effect on the activity of isomer 1a |  |
| CO[C@H]1C[C@@H]2CC[C@@H](C)[C@@](O)(O2)C(=O)C(=O)N2CCCC[C@H]2C(=O)O[C@H]([C@H](C)C[C@@H]2CC[C@@H](O)[C@H](OC)C2)CC(=O)[C@H](C)/C=C(\C)[C@@H](O)[C@@H](OC)C(=O)[C@H](C)C[C@H](C)/C=C/C=C/C=C/1C [Rapamycin] |  | antagonizes isomer 1a inhibition of hENT1-mediated thymidine uptake |
